Data: article PMC9298916, “The Discovery and Structure‐Activity Evaluation of (+)‐Floyocidin B and Synthetic Analogs” (Chemmedchem, 2021)
Converted amounts (≈) assume the structure as drawn. Read-outs that look alike come from different tables or passages of the source.

Key:
THP1 cells = experiment: Cytotoxicity on THP1 cells (CellTiterGlo); assay type: cell-based; details: THP1 cells; 40 h
Experimental: (§1) Cytotoxicity on THP1 and HepG2 cells
(§2) After 4 hours of HepG2 cell line (provided by ATCC) plating at 2.500 cells /well in 384-w plates, compounds were added to the cells. After an incubation at 37 °C for 40 h, the CellTiterGlo assay (provided by Promega) was performed.
(§3) Luminescence measurement is related to the cell viability. Compound activity is determined by using the control wells with no treatment as control (100% of growth). The assay was performed identically with THP1 cells. All incubations were […]

Caco-2 cells = experiment: Cellular permeability assay utilizing Caco2 cell line; details: 10 µM, 120 min; for Caco‐2 permeability Papp +Elacridar / Caco‐2 permeability recovery +Elacridar: A2B in the presence of elacridar
C. albicans FH2173 = experiment: Micro-broth dilution growth inhibition, C. albicans (ATP quantification); assay type: cell-based
physchem = assay type: physicochemical; details: for chromatographic logD: pH 7.4, Log D pH 7.4
Experimental: 2.4. Assay descriptions for the profiling of all four stereoisomers of (+)-floyocidin B and (−)-avicennone C,1 the avicennone C-floyocidin B hybrids 35, ent-35, 36 and ent-36 as well as the natural product (+)-floyocidin A.
Determination of logD 7.4
LogD values at pH 7.4 were determined by a standardized HPLC method derived from by Genieser et al.8 The calculation of the logD value for measured compounds is performed by comparison of the retention times with standard compounds of known distribution coefficients between 1 -octanol and water at pH 7.4. […]
8 Krass, J. D., Jastorff, B., and Genieser, H.-G. Anal. Chem. 1997, 69, 2575–2581. […]

[1] = Microsomal stability, human; assay type: in vitro ADME; details: 1 µM compound; for Microsomal stability CLint, Human / Microsomal stability t1/2, Human: human liver microsomes 0.5 mg/mL; for microsomal CLint at 1 µM / half-life at 1 µM: human, pooled liver microsomes, pH 7.4, human liver microsomes 0.5 mg/mL; for half-life at 1 µM: read-out: Microsomal stability t1/2, Human
Experimental: (§4) 2.4. Assay descriptions for the profiling of all four stereoisomers of (+)-floyocidin B and (−)-avicennone C,1 the avicennone C-floyocidin B hybrids 35, ent-35, 36 and ent-36 as well as the natural product (+)-floyocidin A. […]
(§5) Pooled liver microsomes are purchased. Microsomes are stored at –80 °C prior to use. Microsomes (final protein concentration 0.5 mg/mL), 0.1 M phosphate buffer pH 7.4, and test compound (final substrate concentration 1 µM; final DMSO concentration 0.25%) are preincubated at 37 °C prior to the addition of NADPH (final concentration 1 mM) to initiate the reaction. A minus cofactor control i ncubation is included for each compound tested where 0.1 M phosphate buffer pH 7.4 is added instead of NADPH. Two control compounds are included. All incubations are performed singularly for each test compound. Each compound is incubate d for 0, 5, 15, 30, and 45 min. The control is incubated for 45 min only. The reactions are stopped by transferring incubate into acetonitrile at the appropriat e time points, in a 1:3 ratio. The termination plates are centrifuged at 3,000 rpm for 20 min at 4 °C to precipitate the protein.
(§6) From a plot of ln peak area ratio (compound peak area/internal standard peak area) against time, the gradient of the line is determined. Subsequently, half -life and intrinsic clearance are calculated using the equations below:
(§7) Elimination rate constant (k) = (- gradient)
(§8) Intrinsic clearance (CL )(µL/min/mg protein) = V x 0.693 […]
(§9) where V = Incubation volume (µL)/Microsomal protein (mg)
(§10) Relevant control compounds are assessed, ensuring intrinsic clearance values fall within the specified limits (if available). […]

HepG2 cells = experiment: Cytotoxicity on HepG2 cells (CellTiterGlo); assay type: cell-based; details: 40 h
Experimental: as §1, §2, §3

[2] = system: M. catarrhalis ATCC25238I; experiment: Micro-broth dilution growth inhibition, M. catarrhalis; assay type: cell-based
E. coli ATCC25922 MHC = experiment: Micro-broth dilution growth inhibition, E. coli in CAMH with 44 mM sodium bicarbonate (MHC); assay type: cell-based; details: E. coli ATCC25922 MHC (CAMH + 44 mM sodium bicarbonate)
E. coli ATCC25922 = experiment: Micro-broth dilution growth inhibition, E. coli (CAMH); assay type: cell-based; details: Escherichia coli, 18 h
S. aureus ATCC25923 = experiment: Micro-broth dilution growth inhibition, S. aureus; assay type: cell-based; details: Staphylococcus aureus, 18 h
P. aeruginosa ATCC27853 = experiment: Micro-broth dilution growth inhibition, P. aeruginosa; assay type: cell-based; details: Pseudomonas aeruginosa, 18 h
[3] = Cellular permeability assay utilizing Caco2 cell line; details: human; for Papp at 120 min, 10 µM: Caco-2, Caco‐2 permeability Papp +Elacridar, A2B in the presence of elacridar; for Papp A→B at 120 min, 10 µM: Caco-2, Caco‐2 permeability Papp A2B, A2B
[4] = Microsomal stability, mouse; assay type: in vitro ADME; details: for Microsomal stability CLint, Mouse / Microsomal stability t1/2, Mouse: mouse liver microsomes 0.5 mg/mL
Experimental: as §4, §5, §6, §7, §8, §9, §10

M. tuberculosis H37Rv = experiment: Growth inhibition, M. tuberculosis H37Rv (Middlebrook 7H9, CellTiter-Blue); assay type: cell-based; details: M. tuberculosis H37Rv (Mtb); 6 days
[5] = Escherichia coli, ATCC25922, 18 h, read-out: MIC
[6] = Candida albicans, FH2173, 48 h, read-out: MIC
[7] = Moraxella catarrhalis, ATCC25238I, read-out: MIC

SMILES	Cytotoxicity TC50 THP1 (THP1 cells) [µM]	Caco‐2 permeability Papp +Elacridar (Caco-2 cells)	Caco‐2 permeability recovery +Elacridar (Caco-2 cells) [%]	Caco‐2 permeability Papp A2B (Caco-2 cells)	Caco‐2 permeability recovery A2B (Caco-2 cells) [%]	MIC (C. albicans FH2173; 48 h) [µg/mL]	Log D pH 7.4 (physchem)	Microsomal stability CLint, Human [1] [μL/min/mg protein]	Microsomal stability t1/2, Human [1] [min]	Cytotoxicity TC50 HepG2 (HepG2 cells) [µM]	MIC [2] [µg/mL]	MIC (E. coli ATCC25922 MHC; [5]) [µg/mL]	MIC (C. albicans FH2173; [6]) [µg/mL]	MIC (E. coli ATCC25922) [µg/mL]	chromatographic logD (physchem)	MIC (S. aureus ATCC25923) [µg/mL]	MIC (P. aeruginosa ATCC27853) [µg/mL]	Papp at 120 min, 10 µM [3] [×10⁻⁶ cm/s]	Microsomal stability CLint, Mouse ([4]; 1 µM compound) [μL/min/mg protein]	Microsomal stability t1/2, Mouse ([4]; 1 µM compound) [min]	also measured
CC(C)=CCC12OC1C(O)c1ccccc1C2=O (stereo not drawn) [compound 2, (−)‐avicennone C, reference compound]	30	393 10^−7 cm s^−1	83.4	407 10^−7 cm s^−1	86.7	128 (≈ 524 µM)	2.86	150	9.26	>30	64 (≈ 262 µM)	–	–	–	–	–	–	–	–	–	–
CCC/C=C/C=C/C1=C(CO)[C@@H](O)[C@H]2O[C@@]2(CC=C(C)C)C1=O [compound 3, (1R,5R,6R)‐3‐((1E,3E)‐Hepta‐1,3‐dien‐1‐yl)‐5‐hydroxy‐4‐(hydroxymethyl)‐1‐(3‐methylbut‐2‐en‐1‐yl)‐7‐oxabicyclo[4.1.0]hept‐3‐en‐2‐one]	–	–	–	–	–	–	–	–	–	–	–	> 128	> 128	> 128	4.11	64 (≈ 201 µM)	> 128	–	–	–	–
CCC/C=C/c1cc2c(cn1)[C@H](O)[C@H]1O[C@@]1(CC=C(C)C)C2=O [compound 27, (1aR,2S,7aR)‐2‐Hydroxy‐7 a‐(3‐methylbut‐2‐en‐1‐yl)‐5‐((E)‐pent‐1‐en‐1‐yl)‐1 a,7 a‐dihydrooxireno[2,3‐g]isoquinolin‐7(2H)‐one]	10.6	–	38.5	–	42.1	–	–	–	–	10.7	–	> 128	> 128	> 128	4.14	> 128	> 128	8.77	–	–	Papp A→B at 120 min, 10 µM [3]: 11.7 ×10⁻⁶ cm/s; microsomal CLint at 1 µM [1]: 95.8 µL/min/mg; half-life at 1 µM [1]: 14.5 min; microsomal CLint at 1 µM ([4]; mouse, pooled liver microsomes, pH 7.4, mouse liver microsomes 0.5 mg/mL, 1 µM compound, read-out: Microsomal stability CLint, Mouse): 1500 µL/min/mg; half-life at 1 µM ([4]; mouse, pooled liver microsomes, pH 7.4, mouse liver microsomes 0.5 mg/mL, 1 µM compound, read-out: Microsomal stability t1/2, Mouse): 0.924 min
CC(C)=CCC12OC1C(O)c1ccccc1C2=O (stereo not shown) [compound 37]	27.2	–	80.9	–	74.8	128 (≈ 524 µM)	–	54.6	25.4	30	128 (≈ 524 µM)	–	–	–	2.82	–	–	27.9	–	–	Papp A→B at 120 min, 10 µM [3]: 32.6 ×10⁻⁶ cm/s; microsomal CLint at 1 µM ([4]; mouse, microsomes, pH 7.4, Microsomal stability CLint): > 1500 µL/min/mg
CC(C)=CCC12OC1C(O)c1ccccc1C2=O (stereo not shown) [compound 38]	30	331 10^−7 cm s^−1	132	620 10^−7 cm s^−1	127	–	2.84	76.0	18.2	9.49	–	> 128	> 128	> 128	–	> 128	> 128	–	1070	1.29	MIC [2, 7]: 128 µg/mL (≈ 524 µM)
CCCC=Cc1cc2c(cn1)C(O)C1OC1(CC=C(C)C)C2=O (stereo not drawn) [ent‐4]	8.78	–	28.7	–	23.4	–	–	–	–	5.97	–	> 128	> 128	> 128	3.97	> 128	> 128	4.67	271	5.12	Caco‐2 permeability recovery +Elacridar (Caco-2 cells; listed as ent-4): 28.7%; Caco‐2 permeability recovery A2B (Caco-2 cells; listed as ent-4): 23.4%; Papp A→B at 120 min, 10 µM [3]: 7.35 ×10⁻⁶ cm/s; microsomal CLint at 1 µM [1]: 26.9 µL/min/mg; half-life at 1 µM [1]: 51.6 min; MIC [2, 7]: 16 µg/mL (≈ 51.1 µM)
CCCC=Cc1cc2c(cn1)C(O)C1OC1(CC=C(C)C)C2=O (stereo not drawn) [ent‐27]	11.5	64.4 10^−7 cm s^−1	15.3	40.5 10^−7 cm s^−1	8.69	–	4.16	44.3	31.3	10.4	8 (≈ 25.5 µM)	–	–	–	–	–	–	–	764	1.81	Caco‐2 permeability recovery +Elacridar (Caco-2 cells; listed as ent-27): 15.3%; Caco‐2 permeability recovery A2B (Caco-2 cells; listed as ent-27): 8.69%
CCCC=Cc1ccc2c(c1)C(=O)C1(CC=C(C)C)OC1C2O (stereo not drawn) [ent‐36]	18.2	12.4 10^−7 cm s^−1	12.0	8.55 10^−7 cm s^−1	14.3	–	4.74	29.9	46.3	11.3	–	–	–	–	–	–	–	–	721	1.92	Caco‐2 permeability recovery +Elacridar (Caco-2 cells; listed as ent-36): 12.0%; Caco‐2 permeability recovery A2B (Caco-2 cells; listed as ent-36): 14.3%; MIC (M. tuberculosis H37Rv): 9.4 µg/mL (≈ 30.1 µM)
CC(C)=CCC12OC1C(O)c1ccccc1C2=O (stereo not drawn) [ent‐37]	25.2	300 10^−7 cm s^−1	74.6	360 10^−7 cm s^−1	81.3	128 (≈ 524 µM)	2.82	73.5	18.9	30	–	–	–	–	–	–	–	–	370	3.75	MIC (E. coli ATCC25922 MHC; 18 h): 128 µg/mL; Caco‐2 permeability recovery +Elacridar (Caco-2 cells; listed as ent-37): 74.6%; Caco‐2 permeability recovery A2B (Caco-2 cells; listed as ent-37): 81.3%
